# Data: patent publication US20110296540A1, “ASSAY FOR SCREENING ANTIDEPRESSANTS” (priority 2008, published 2011)
# Read-outs that look alike come from different tables or passages of the source.
# Columns and labels:
# [1] = target: T1, 5-HT1A autoreceptors (Mus musculus, UniProt Q64264)
# T1 sequence (Q64264 1-421): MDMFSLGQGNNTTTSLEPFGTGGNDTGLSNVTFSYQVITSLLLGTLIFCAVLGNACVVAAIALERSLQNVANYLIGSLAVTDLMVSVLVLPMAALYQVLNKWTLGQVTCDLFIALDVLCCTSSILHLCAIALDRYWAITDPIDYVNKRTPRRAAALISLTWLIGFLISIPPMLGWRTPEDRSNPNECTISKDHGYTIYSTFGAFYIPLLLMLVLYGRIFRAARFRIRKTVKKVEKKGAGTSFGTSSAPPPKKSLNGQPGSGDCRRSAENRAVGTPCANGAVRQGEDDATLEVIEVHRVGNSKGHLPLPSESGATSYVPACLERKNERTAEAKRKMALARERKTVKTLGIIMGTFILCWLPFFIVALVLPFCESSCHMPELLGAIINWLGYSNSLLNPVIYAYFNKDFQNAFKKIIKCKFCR
# Procedure: (A) 8-OH DPAT-induced hypothermia in 1A-High and 1A-Low mice. Following establishment of baseline body temperature, animals received IP injections of 0.1 mg/kg 8-OHDAPT, 0.5 mg/kg 8-OH DPAT, or saline (N=5/dose/group). Values are expressed as core temperature change from the last recorded baseline temperature.
# [2] = tested on: newborn granule cells; experiment: Survival and maturation of newborn granule cells (BrdU/DCX/NeuN triple staining); type: in vivo, mice
# Procedure: Immunohistochemistry and confocal imaging. Mice were anesthetized with ketamine/xylazine (100 and 7 mg/kg, respectively) and transcardially perfused (cold saline, followed by 4% cold paraformaldehyde in PBS). […] Serial sections were cut through the entire hippocampus (Franklin and Paxinos, 1997) using a cryostat and stored in PBS. Immunohistochemistry was performed in the following steps: 2 h incubation in 1:1 formamide/2×SSC at 65° C., 5 min rinse in 2×SSC, 30 min incubation in 2N HCl at 37° C., and 10 min rinse in 0.1M boric acid, pH 8.5, 2 h incubation in 0.1M PBS with 0.3% Triton X-100, and 5% normal donkey serum. Sections were then incubated overnight at 4° C. in primary antibodies for doublecortin (goat; 1:500; Santa Cruz Biotechnology, Santa Cruz, Calif.), bromodeoxyuridine (BrdU; rat; 1:100; Serotec, Oxford, UK), and neuronal-specific nuclear protein (NeuN) (mouse; 1:500; Chemicon, Temecula, Calif.). Biotinylated or fluorescent secondary antibodies were used. All secondary antibodies were purchased from Jackson ImmunoResearch (West Grove, Pa.). DCX staining for Sholl analysis was done as follows: sections were rinsed in PBS, treated with 1% H2O2 in 1:1 PBS and methanol for 15 min to quench endogenous peroxidase activity (and to enhance dendritic staining), incubated in 10% normal donkey serum and 0.3% Triton X-100 for 30 min, and then incubated overnight at 4° C. in primary antibody for doublecortin. After secondary antibody incubation, sections were developed using Vector ABC kit and DAB kit. Bright-field images were taken with a Zeiss (Oberkochen, Germany) Axioplan-2 upright microscope. Stereological procedure was used to quantify labeled cells (Malberg et al., 2000 ? ). All cell counting for triple-stained sections were done using a Zeiss LSM 510 META confocal microscope.
# As depicted in FIG. 4A, BrdU (75 mg/kg) was given four times over 8 h on day 0 to achieve maximum labeling of proliferating progenitors over a restricted time window. […] Hippocampal sections were triple stained for BrdU, DCX, and NeuN (FIG. 4B,C). Image acquisition and cell counting were performed using a Zeiss LSM META 510 confocal microscopy.
# [3] = tested on: β-arrestin 2 knock out mice (S129/Sv×C57BL/6); experiment: Open Field paradigm in β-arrestin 2 knock out mice and littermates; type: in vivo
# From the text: Adult male C57BL/6Ntac mice were purchased from Taconic Farms (Germantown, N.Y., USA; Lille Skensved, Denmark). Male heterozygous β-arrestin 2+/− and heterozygous female mutant β-arrestin+/− mice (age 4-6 months, 25-30 g body weight) were bred on a mixed S129/Sv×C57BL/6 genetic background raised at the animal facility of Columbia University (New York, USA). […] Food and water were provided ad libitum. Behavioral testing occurred during the light phase between 0700 and 1900 for the OF, NSF and FST, splash test.
# For all the studies, control mice received β-CD.
# Motor activity was quantified in four Plexiglas open field boxes 43 times 43 cm2 (MED Associates, Georgia, Vt.). Two sets of 16 pulse-modulated infrared photobeams were placed on opposite walls 2.5-cm apart to record x-y ambulatory movements. Activity chambers were computer interfaced for data sampling at 100-ms resolution. The computer defined grid lines that divided each Open Field into center and surround regions, with each of four lines being 11 cm from each wall. Dependent measures in the center were the total time and the number of entries over a 30-min period of test. The whole session was also divided in 5 periods to analyze the time spent in the center every 5 min. The overall motor activity was quantified as the total distance traveled (cm) or distance traveled in the center divided by total distance traveled.
# [4] = tested on: C57BL/6Ntac mice; experiment: Home cage activity; type: in vivo; conditions: chronic antidepressant treatment (fluoxetine 18 mg/kg/day)
# Procedure: Home cage activity Home cage activity was quantified using the ActiV-Meter (Bioseb, France) over a 24 hours period. During the experiment, food and water were provided ad libitum. Various parameters such as activity time (sec), ambulatory distance (cm) and inactivity duration (calculated from the difference between immobility and motionless activity duration while the animal is eating or scratching) were recorded. The open field paradigm, the novelty suppressed feeding, the forced swim test The procedure for each behavioral test, i.e. the open field paradigm, the novelty suppressed feeding, the forced swim test, is described in the materials and methods section.
# [5] = after 3 weeks of fluoxetine, mean±SEM
compound,measurement,setting,value
CNCCC(Oc1ccc(C(F)(F)F)cc1)c1ccccc1 (centres unmarked) [fluoxetine],hypothermic response to 8-OH DPAT after chronic fluoxetine,[1]; 1A-High mice treated with fluoxetine for 30 days,no hypothermic response
same,hypothermic response to 8-OH DPAT after chronic fluoxetine,[1]; 1A-Low mice treated with fluoxetine for 30 days,blunted hypothermic response
same,number of BrdU+NeuN+DCX+ cells,[2]; 3 and 4 weeks of fluoxetine,did not have an effect
same,number of cells expressing both BrdU and NeuN,[2]; 3 and 4 weeks of fluoxetine,also increased
same,pool of mature BrdU+NeuN+DCX− cells,[2]; 3 and 4 weeks of fluoxetine,significantly increased
same,total number of BrdU+ cells in the GCL (survival),[2]; 3 and 4 weeks of fluoxetine begun 24 h after BrdU,significantly increased
same,proportion of BrdU cells that are NeuN+,[2]; 5 d of fluoxetine,did not change
same,transition of BrdU immature cells from DCX+NeuN− stage to DCX+NeuN+ stage,[2]; 5 d of fluoxetine,did not change
same,proportion of BrdU+NeuN+ cells that ceased to express DCX,[2]; [5],39.24±1.78
same,proportion of BrdU+NeuN+ cells that express DCX,[2]; [5],51.64±3.71%
same,survival of immature neurons as measured by BrdU,"[2]; subchronic, 5 d",did not change
same,total number of entries in the center (Open Field),"[3]; wild-type animals, 4 weeks fluoxetine",increased
same,time spent in the center (Open Field),"[3]; wild-type animals, 4 weeks fluoxetine 18 mg/kg/day",increased
same,effect of fluoxetine on time spent in the center (Open Field),[3]; β-arrestin 2 knock out mice,abolished
same,total ambulatory distance (Open Field),[3]; β-arrestin 2 knock out mice,absence of effects
same,total number of entries in the center (Open Field),[3]; β-arrestin 2 knock out mice,absence of effects
same,corticosterone-induced decreased home cage activity and flattened circadian rhythm,[4],is not reversed
